Where no end group is shown, it is not given here.

The values that follow come from patent publication US20100234306A1, “USE OF A PEPTIDE AS A THERAPEUTIC AGENT” (priority 2007, published 2010).

The test system of data set [1] is HIV-1IIIB. Kind of data set: HIV-1 antiviral CPE assay in CEM-SS cells (MTS). Conditions: 6 days post-infection, peptide 10 micrograms per ml.
The subject of data set [2] is CEM-SS cells. Kind of data set: Cytotoxicity (MTS cell viability) in the HIV-1 assay. Conditions: MTS, peptide 10 micrograms per ml.
The nature of data set [3]: Cytotoxicity testing in MRC-5 cells (CellTiter 96). To be noted: human, MRC-5 cells (embryonal lung fibroblasts), 6 days incubation, read-out: % Cell viability. Type of data set: cell-based. Here is the method:
For cytotxicity testing, MRC-5 cells were seeded at 2,500 cells/well in 96 well plates using growth medium. […] The following day, peptide was added and tested in duplicates. After a 6 days incubation period, cell viability was measured using CellTiter 96 Solution (Promega). Plates were incubated for additional 4 hours at 37° C.

Data set [4] concerns Pseudomonas aeruginosa. In words: Pseudomonas aeruginosa growth inhibition assay. Type of data set: cell-based. Conditions: Mueller-Hinton Broth, read visually, peptide 10 micrograms per ml.
The test system of data set [5] is Streptococcus pneumoniae. In words: Streptococcus pneumoniae growth inhibition assay. Format: cell-based. To be noted: Mueller-Hinton Broth, read visually, peptide 10 micrograms per ml.
Data set [6] relates to MRSA. To be noted: Mueller-Hinton Broth, read visually, peptide 10 micrograms per ml.
A short description of data set [7]: in vitro. To be noted: human.
The nature of data set [8]: Cytotoxicity (MTS cell viability) in the HIV-1 assay. Conditions: human, CEM-SS cells.

As for `Cc1cn([C@H]2C[C@H](N=[N+]=[N-])[C@@H](CO)O2)c(=O)[nH]c1=O` [AZT], the “% CPE reduction in HIV-1 infected CEM-SS cells” value in data set [1] amounted to 99%. In addition, in data set [2], the “% Cell viability” value is on record as 97%.

`CC(C)(C)NC(=O)[C@@H]1CN(Cc2cccnc2)CCN1C[C@@H](O)C[C@@H](Cc1ccccc1)C(=O)N[C@H]1c2ccccc2C[C@H]1O` [Indinavir]: in data set [2], the “% Cell viability” value came to 93%.

The term viability denotes the share of living cells, or the viability signal relative to a control. Usually % inhibition stands for the percentage by which the read-out fell short of the control. As for MQMKKVLDS-OH [AIP-1], the viability at 144 h in data set [3] was 100%. The “% inhibition” value in data set [4], in data set [5] and in data set [6] was 0.0% throughout. In addition, the viability at 144 h, 10 micrograms per ml in data set [7] is 100%. This molecule gave a viability at 10 micrograms per ml in data set [8] of 100%.
